# Experiments:
# [1] = system: Leishmania donovani; assay: inhibitory concentration against Leishmania donovani was determined; assay type: functional, organism-based
# [2] = system: Plasmodium falciparum; assay: Inhibitory concentration for Plasmodium falciparum; assay type: functional, organism-based
# [3] = system: Trypanosoma brucei rhodesiense; assay: inhibitory concentration against Trypanosoma brucei rhodesiense determined; assay type: functional, organism-based
# [4] = system: Trypanosoma cruzi; assay: inhibitory concentration against Trypanosoma cruzi was determined; assay type: functional, organism-based
# [5] = system: OVCAR-3; assay: Concentration required for 50% growth inhibition against human ovarian OVCAR-3 cell lines; assay type: functional
# [6] = system: K562; assay: Concentration required for 50% growth inhibition against human leukemia K-562 cell lines; assay type: functional
# [7] = system: HOP-92; assay: Concentration required for 50% growth inhibition against human non small cell lung cancer HOP-92; assay type: functional
# [8] = system: UACC-62; assay: Concentration required for 50% growth inhibition against human melanoma UACC-62 cell lines; assay type: functional
# [9] = system: MDA-MB-231; assay: Concentration required for 50% growth inhibition against human breast MDA-MB-231/ATCC cell lines; assay type: functional
# [10] = system: HT-29; assay: Concentration required for 50% growth inhibition against human colon HT-29 cell lines; assay type: functional
# [11] = system: M14; assay: Concentration required for 50% growth inhibition against human melanoma M14 cell lines; assay type: functional
SMILES,IC50 [1] [µg/mL],IC50 [2] [µg/mL],IC50 [3] [µg/mL],IC50 [4] [µg/mL],GI50 [5] [µM],GI50 [6] [µM],GI50 [7] [µM],GI50 [8] [µM],GI50 [9] [µM],GI50 [10] [µM],GI50 [11] [µM]
CCN(CC)N1CCN(c2[nH]ccc3c4ccccc4nc2-3)CC1,> 90,0.41,0.63,5.8,,,,,,,
OCCNc1[nH]ccc2c3ccccc3nc1-2,> 90,2.4,1.8,4.25,,,,,,,
OC1CCCN(c2[nH]ccc3c4ccccc4nc2-3)C1 (configuration not stated),> 90,3.4,8.9,19.3,,,,,,,
c1ccc2c3cc[nH]c(N4CCN(N5CCCC5)CC4)c-3nc2c1,> 90,0.45,0.52,6.1,,,,,,,
c1ccc2c3cc[nH]c(N4CCN(N5CCCCC5)CC4)c-3nc2c1,> 90,0.39,1.8,2.35,,,,,,,
c1ccc2c3cc[nH]c(N4CCN(N5CCCCCC5)CC4)c-3nc2c1,> 90,0.35,0.61,6.5,,,,,,,
CN(C)CCCNc1nccc2c1[nH]c1ccccc12,> 90,0.45,28.1,4.2,,,,,,,
CCN(CC)CCCNc1nccc2c1[nH]c1ccccc12,> 90,0.64,0.18,1.62,1.6,3.2,0.38,2.3,5.2,2.7,2
c1ccc2c(c1)[nH]c1c(N3CCOCC3)nccc12,> 90,4.59,18.2,25.1,,,,,,,
c1ccc2c(c1)[nH]c1c(N3CCCCC3)nccc12,> 90,1.2,0.13,> 30,,,,,,,
CCN(CC)CCCC(C)Nc1nccc2c1[nH]c1ccccc12 (configuration not stated),> 90,0.42,0.13,3,22.8,12.2,4.5,24,,22.9,16.4
CN1CCN(c2nccc3c2[nH]c2ccccc23)CC1,> 90,0.62,0.63,4.3,19.9,22.5,18.6,17.8,3.9,,14.9

# Source: ChEMBL document CHEMBL1138655, “Synthesis and biological studies of 1-amino beta-carbolines” (Bioorg Med Chem Lett, 2004)
